“And” between values parts separate entries of the source, which are not always exact repeats. Equal values may be shown once.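 The compound was tested at five concentrations on cells cultured in 96-well plates, with a 48-hour exposure period. TGI is the concentration that stops growth completely.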
Columns and labels:
Experiment in all cases: growth of human tumour cells (NCI), 48 h
[1] = tested on: KM12 colon
[2] = tested on: SW-620 colon
[3] = tested on: MDA-MB-231 breast
[4] = tested on: SK-MEL-5 melanoma
[5] = tested on: SN12C renal
[6] = tested on: NCI-H226 lung
[7] = tested on: HCT-15 colon
[8] = tested on: MALME-3M melanoma
[9] = tested on: CCRF-CEM leukemia
[10] = tested on: HCT-116 colon
[11] = tested on: OVCAR-8 ovarian
[12] = tested on: COLO 205 colon
[13] = tested on: M14 melanoma
[14] = tested on: EKVX NSCLC
[15] = tested on: ACHN renal
[16] = tested on: NCI-H460 lung
[17] = tested on: UACC-62 melanoma
[18] = tested on: TK-10 renal
[19] = tested on: SR leukemia

CC(C)(C)OC(=O)CC(NC(=O)OC(C)(C)C)C(=O)Oc1ccc([N+](=O)[O-])cc1 (centres undefined)
TGI [1]: > 100 µM
TGI [2]: > 100 µM
TGI [3]: > 100 µM
TGI [4]: > 100 µM
TGI [5]: > 100 µM
TGI [6]: > 100 µM
TGI [7]: > 100 µM
TGI [8]: > 100 µM
TGI [9]: > 100 µM
TGI [10]: > 100 µM
TGI [11]: > 100 µM
TGI [12]: > 100 µM
TGI [13]: > 100 µM
TGI [14]: > 100 µM
TGI [15]: > 100 µM
TGI [16]: > 100 µM
TGI [17]: 65.9 µM
TGI [18]: > 100 µM

COC(=O)C(=O)C(C(=O)C(=O)Nc1nc(=S)[nH][nH]1)c1nc2ccc([N+](=O)[O-])cc2[nH]c1=O (centres undefined)
TGI [1]: > 100 µM
TGI [2]: > 100 µM
TGI [3]: > 100 µM
TGI [4]: > 100 µM
TGI [5]: > 100 µM
TGI [6]: > 100 µM
TGI [7]: > 100 µM
TGI [8]: > 100 µM
TGI [9]: > 100 µM
TGI [10]: > 100 µM
TGI [11]: > 100 µM
TGI [13]: > 100 µM
TGI [14]: > 100 µM
TGI [15]: > 100 µM
TGI [16]: > 100 µM
TGI [17]: > 100 µM
TGI [18]: > 100 µM

CCOC(=O)c1c[nH]c2cc3c(cc2c1=O)CCS3
TGI [1]: > 100 µM
TGI [2]: > 100 µM
TGI [3]: > 100 µM
TGI [4]: > 100 µM
TGI [5]: > 100 µM
TGI [6]: > 100 µM
TGI [7]: > 100 µM
TGI [8]: > 100 µM
TGI [9]: > 100 µM
TGI [10]: > 100 µM
TGI [11]: > 100 µM
TGI [12]: > 100 µM
TGI [13]: > 100 µM
TGI [14]: > 100 µM
TGI [15]: > 100 µM
TGI [16]: > 100 µM
TGI [17]: > 100 µM
TGI [18]: > 100 µM

CSc1nc(Cl)c2c(n1)Sc1nc3ccccc3n1N=C2
TGI [1]: > 100 µM
TGI [2]: 29.3 µM
TGI [3]: 50.9 µM
TGI [4]: 72.6 µM
TGI [5]: > 100 µM
TGI [6]: > 100 µM
TGI [7]: 36.7 µM
TGI [8]: 68.2 µM
TGI [9]: 46.2 µM
TGI [10]: > 100 µM
TGI [11]: 36.4 µM
TGI [12]: 57.5 µM
TGI [13]: 46.3 µM
TGI [15]: 58 µM
TGI [16]: > 100 µM
TGI [17]: 84.3 µM
TGI [18]: > 100 µM

NC(N)=N/N=C/c1c(-c2ccc(Cl)cc2)nc2n1CCS2
TGI [1]: 24.2 µM
TGI [2]: 21 µM
TGI [4]: 10.3 µM
TGI [5]: 29.5 µM
TGI [6]: 41 µM
TGI [7]: 28.8 µM
TGI [8]: 30.9 µM
TGI [9]: 16.9 µM
TGI [10]: 16.4 µM
TGI [11]: 29.5 µM
TGI [12]: 14.3 µM
TGI [13]: 11.1 µM
TGI [14]: 30.4 µM
TGI [15]: 27 µM
TGI [16]: 26.9 µM
TGI [17]: 24.6 µM
TGI [18]: 29.4 µM

CC(=O)Oc1cc2c(n(C)c1=O)CCC2
TGI [1]: > 100 µM
TGI [2]: > 100 µM
TGI [3]: > 100 µM
TGI [4]: > 100 µM
TGI [5]: > 100 µM
TGI [6]: > 100 µM
TGI [7]: > 100 µM
TGI [8]: > 100 µM
TGI [9]: > 100 µM
TGI [10]: > 100 µM
TGI [11]: > 100 µM
TGI [12]: > 100 µM
TGI [13]: > 100 µM
TGI [14]: > 100 µM
TGI [15]: > 100 µM
TGI [16]: > 100 µM
TGI [18]: > 100 µM

O=c1[nH]c(Br)nc2c(N3CCCCC3)c[nH]c12
TGI [1]: > 100 µM
TGI [2]: > 100 µM
TGI [4]: > 100 µM
TGI [5]: > 100 µM
TGI [6]: > 100 µM
TGI [7]: > 100 µM
TGI [8]: > 100 µM
TGI [9]: > 100 µM
TGI [10]: > 100 µM
TGI [11]: > 100 µM
TGI [12]: > 100 µM
TGI [13]: > 100 µM
TGI [14]: > 100 µM
TGI [15]: > 100 µM
TGI [16]: > 100 µM
TGI [17]: > 100 µM
TGI [18]: > 100 µM

Cc1cc2nc3c(C#N)c4c(c(Nc5ccc(Cl)cc5)n3c2cc1C)CCC4
TGI [1]: > 100 µM
TGI [2]: 34 µM
TGI [3]: 42.8 µM
TGI [4]: 32.9 µM
TGI [5]: 34.4 µM
TGI [6]: 64.7 µM
TGI [7]: 36.7 µM
TGI [8]: 55 µM
TGI [10]: 30.4 µM
TGI [11]: 35.5 µM
TGI [12]: 59.1 µM
TGI [14]: > 100 µM
TGI [15]: 43.3 µM
TGI [18]: 40.9 µM

C[C@]12CC[C@H]3[C@@H](CCC4=CC(=O)CC[C@@]43C)[C@@H]1CC[C@@H]2OC(=O)c1cccc2c(=O)c3ccccc3[nH]c12
TGI [1]: > 100 µM
TGI [2]: > 100 µM
TGI [3]: > 100 µM
TGI [4]: > 100 µM
TGI [5]: > 100 µM
TGI [6]: > 100 µM
TGI [7]: > 100 µM
TGI [8]: > 100 µM
TGI [9]: > 100 µM
TGI [11]: > 100 µM
TGI [12]: > 100 µM
TGI [13]: > 100 µM
TGI [14]: > 100 µM
TGI [15]: > 100 µM
TGI [16]: > 100 µM
TGI [17]: > 100 µM
TGI [18]: > 100 µM

COC1=CC(=O)C2C(C1=O)[C@@H]1c3ccccc3OC[C@H]21 (some centres undefined)
TGI [1]: > 100 µM
TGI [2]: > 100 µM
TGI [4]: > 100 µM
TGI [6]: > 100 µM
TGI [8]: > 100 µM
TGI [9]: > 100 µM
TGI [10]: > 100 µM
TGI [11]: > 100 µM
TGI [12]: > 100 µM
TGI [13]: > 100 µM
TGI [14]: > 100 µM
TGI [15]: > 100 µM
TGI [16]: > 100 µM
TGI [18]: > 100 µM

Cc1nc2c(s/c(=N\N)n2-c2ccccc2)c(=O)n1C
TGI [1]: > 100 µM
TGI [2]: > 100 µM
TGI [4]: > 100 µM
TGI [19]: > 100 µM
TGI [5]: > 100 µM
TGI [6]: > 100 µM
TGI [7]: > 100 µM
TGI [9]: > 100 µM
TGI [10]: > 100 µM
TGI [11]: > 100 µM
TGI [12]: > 100 µM
TGI [13]: > 100 µM
TGI [14]: > 100 µM
TGI [15]: > 100 µM
TGI [16]: > 100 µM
TGI [17]: > 100 µM
TGI [18]: > 100 µM

CCN1CCC(O)(/C=C/c2ccc(Cl)cc2)C(C(=O)/C=C/c2ccc(Cl)cc2)C1 (centres undefined)
TGI [1]: 29.5 µM
TGI [2]: 56.8 µM
TGI [4]: 28.3 µM
TGI [19]: > 100 µM
TGI [6]: 43.6 µM
TGI [7]: 46.4 µM
TGI [8]: > 100 µM
TGI [9]: > 100 µM
TGI [10]: 13.4 µM
TGI [11]: 61.3 µM
TGI [12]: > 100 µM
TGI [13]: > 100 µM
TGI [14]: > 100 µM
TGI [15]: > 100 µM
TGI [16]: > 100 µM
TGI [17]: 42.2 µM
TGI [18]: > 100 µM

OCC(O)C(O)C(C=NNc1ncnc2ccc(Br)cc12)=NNc1ncnc2ccc(Br)cc12 (centres undefined)
TGI [1]: 69 µM and > 100 µM
TGI [2]: > 100 µM
TGI [3]: 31.3 µM and > 100 µM
TGI [4]: 2.68 µM and 4.28 µM
TGI [5]: > 100 µM
TGI [10]: > 100 µM
TGI [11]: 46.9 µM and > 100 µM
TGI [12]: > 100 µM
TGI [13]: 4.91 µM and 17.4 µM
TGI [14]: 20.9 µM and > 100 µM
TGI [15]: 14.2 µM and > 100 µM
TGI [18]: > 100 µM

Cc1ccccc1NC(=O)CC(=O)n1nc(-c2ccccc2)c(N=Nc2ccc([N+](=O)[O-])cc2)c1-c1ccccc1
TGI [1]: 61.5 µM
TGI [2]: > 100 µM
TGI [4]: 25.9 µM
TGI [19]: > 100 µM
TGI [5]: 58.4 µM
TGI [6]: 58.4 µM
TGI [8]: 75.9 µM
TGI [9]: > 100 µM
TGI [10]: 31.5 µM
TGI [11]: > 100 µM
TGI [12]: 30.5 µM
TGI [13]: 33.3 µM
TGI [14]: 88.1 µM
TGI [15]: 44.5 µM
TGI [16]: > 100 µM
TGI [17]: 29.6 µM
TGI [18]: > 100 µM

Reference: PubChem BioAssay (NCI)
